Laboratory results taken from a melting point compilation (Tetko et al.; mined from patent text by program, amines drawn as free bases though some values may be those of a salt).

Compared with `O=C(NN1CCCCC1)c1ccc(N2CCN(C(=O)N3CCC(c4cn[nH]c4)C3)c3ccccc32)cc1` (stereo not given), `O=C(COc1ccc2ccccc2c1)N1CCCN(c2cc(N3CCCC3)nc(N3CCCC3)n2)CC1` is lower in melting point: 251 °C for the first, 103 to 110 °C for the second.

First: Nc1cc(F)c(OC(F)F)cc1[N+](=O)[O-]
Second: O=[N+]([O-])c1cc(Br)ccc1-c1ccc(Cl)cc1Cl
The melting point of the first is lower: 95 to 97.5 °C for the first, 112 to 115 °C for the second.

First: O=C(O)COc1ccc(SCc2ccc(OCc3cc(Cl)cc(Cl)c3)cc2)c2c1CCC2
Second: COC(=O)c1ccc2cc(OCc3cccc(COc4ccc5cc(C(=O)OC)ccc5c4)c3)ccc2c1
The melting point of the first is lower: 134 to 135 °C for the first, 177 to 178 °C for the second.

First: O=C(Nc1ccc(F)cc1)OC1CCCNC1 (stereo not given)
Second: O=C(O)C1CCC(=O)N1Cc1cccc(F)c1 (stereo not given)
The melting point of the first is higher: 147 to 148 °C for the first, 114 to 116 °C for the second.

First: CCOC(=O)c1nc(-c2cccc3ccccc23)[nH]c1-c1ccc(C)cc1
Second: Cn1c(C(N)=O)c(-c2ccc(N)cc2)c2ccccc21
The melting point of the first is higher: 190 to 192 °C for the first, 96 to 98 °C for the second.

First: O=C(CCc1ccccc1)N[C@H]1COC1=O
Second: CC(C)C(NC(=O)OCc1ccccc1)P(O)O (stereo not given)
The melting point of the first is lower: 104 to 106 °C for the first, 108 to 111 °C for the second.

Compared with `CC(=O)OCc1ccc(N(c2ccccc2)c2ccc(C=CC=O)cc2)cc1`, `Fc1ccc(C=Nc2ccccc2)cc1` is lower in melting point: 112 to 115 °C for the first, 39 to 40 °C for the second.

First: CNCCCS(=O)(=O)CCCC(F)(F)C(F)(F)F
Second: O=P(O)(O)CCCCC(F)(F)C(F)(F)C(F)(F)C(F)(F)F
The melting point of the first is lower: 55 to 57 °C for the first, 123 to 124 °C for the second.

First: Cc1nnc(-c2ccc3ncn(-c4ccc(OC(F)(F)F)c(Cl)c4)c3c2)o1
Second: CCOC(=O)Cn1c(-c2ccc(C(F)(F)F)cc2)nc2cccnc21
The melting point of the first is higher: 211 to 212 °C for the first, 147 to 148 °C for the second.

Compared with `O=C1NN=C(CCc2ccccc2)c2c[nH]c3cccc1c23`, `N/C(=C1/Sc2ccccc2C1=O)c1ccccc1F` is lower in melting point: 182 to 184 °C for the first, 156 to 158 °C for the second.

First: CCCCCCCCCCC(=O)OCCCCCC(=O)CC(=O)c1ccccc1
Second: CCCCCCCCCCCCCCCCOC(=O)Nc1ccc(NC(=O)NS(=O)(=O)c2ccc3ccccc3c2)cc1
The melting point of the first is lower: 37 to 38 °C for the first, 183 °C for the second.

First: CC(C)C(=O)C(C)(C)SN(C)C(=O)ON=C1SC(C)(C)C(=O)N1C
Second: CC(C)(C)OC(=O)c1ccc(C=Cc2ccc(C(=O)OC(C)(C)C)cc2)cc1
The melting point of the first is lower: 112 to 114 °C for the first, 126 to 127 °C for the second.

First: Cn1c2c(c3cc(OCc4ccccc4)ccc31)CC(CCN)C2 (stereo not given)
Second: Cc1ccc(CC(N)C(O)C(N)Cc2ccccc2)cc1 (stereo not given)
The melting point of the first is lower: 72 to 75 °C for the first, 126 to 128 °C for the second.

First: O=c1[nH]cnc2oc(-c3ccccc3)cc12
Second: CC(C)c1noc(-c2ccccc2)c1-c1ccc(S(N)(=O)=O)cc1
The melting point of the first is higher: 320 to 322 °C for the first, 205 °C for the second.

First: CCOC(=O)C1CC12CCN(c1ccc(N3CC(CNC(C)=O)OC3=O)cc1F)CC2 (stereo not given)
Second: COc1cccc2cc(CNCCNC(=O)C34CCC(CC3=O)C4(C)C)oc12 (stereo not given)
The melting point of the first is lower: 104 to 106 °C for the first, 177 to 178 °C for the second.

First: CN1c2ccc(-c3ccc4ccccc4c3)cc2Sc2cc(-c3ccc4ccccc4c3)ccc21
Second: O=C(c1ccc2ccccc2c1)N1CC[C@H](NCc2ccnc3ccccc23)C[C@H]1Cc1ccccc1 (relative stereo)
The melting point of the first is higher: 276 to 281 °C for the first, 111 to 112 °C for the second.

Compared with `O=C(Cc1ccncc1)NC(Cc1ccc(Cl)c(Cl)c1)C(=O)CCc1cc(C(F)(F)F)cc(C(F)(F)F)c1` (stereo not given), `CN(C)CCNc1ncc(C(=O)N(C)Cc2cc(C(F)(F)F)cc(C(F)(F)F)c2)c(-c2ccccc2)n1` is lower in melting point: 142 to 144 °C for the first, 110 °C for the second.

First: Nc1nc(N)c(N=O)c(OCC2CC=CCC2)n1 (stereo not given)
Second: COCn1c(C)nc2nc(O)cnc2c1=O
The melting point of the first is higher: 237 °C for the first, 224 to 226 °C for the second.

Compared with `CC1=C(C#N)S(=O)(=O)c2cc(F)cc(F)c2N1`, `Cn1c(C(F)(F)F)cc(=O)n(-c2nc(Cl)c(O)cc2F)c1=O` is lower in melting point: 289 to 290 °C for the first, 189 to 192 °C for the second.

Compared with `CN(C)c1ccc(CN2C(=O)C3(COc4cc5c(cc43)OCCO5)c3ccccc32)nc1` (stereo not given), `CC1(C)c2ccccc2Oc2ncccc21` is lower in melting point: 229 to 236 °C for the first, 72 to 73 °C for the second.

Compared with `O=C(CS(=O)C(c1ccc(F)cc1)c1ccc(F)cc1)NO` (stereo not given), `Fc1ccc(C=Nc2nc3ccc(Cl)cc3s2)cc1` is higher in melting point: 90 to 91 °C for the first, 168 to 169 °C for the second.

First: CCCCCCCCCCCCNC(=O)c1cc(-c2cc(Cl)cc(Cl)c2)c(OCC(=O)O)c(-c2cc(Cl)cc(Cl)c2)c1
Second: CCCCCCCCCCOc1ccc(NC(=O)c2ccc(OC(C)=O)cc2)cc1OCCCCCCCCCC
The melting point of the first is higher: 139 to 144 °C for the first, 117 °C for the second.

First: COc1ccc2cc([C@H](C)C(=O)OCCOC(=O)C(=O)OCCCO[N+](=O)[O-])ccc2c1
Second: COC(=O)C(C)(C)OCc1cc2cc(C(F)(F)F)ccc2n1S(=O)(=O)c1cc(OC)ccc1OC
The melting point of the first is lower: 55 to 58 °C for the first, 130 to 132 °C for the second.

First: CN(C)C=Nc1ccc(-n2ncnc2-c2ccccc2)cc1
Second: CCN(C)C(=O)C(C)n1cc(C)c(-c2ccccc2)n1 (stereo not given)
The melting point of the first is higher: 109 to 111 °C for the first, 59 to 61 °C for the second.

Compared with `CCC[C@H](NC(=O)OCc1ccccc1)C(=O)C(N)P(=O)(OC)OC` (stereo not given in full), `CC(C)(C)OC(=O)N[C@@H](COCc1ccccc1)C(=O)N[C@H](CCC(=O)OCc1ccccc1)C(N)=O` is lower in melting point: 82 to 84 °C for the first, 65 to 66 °C for the second.

Compared with `COc1ccc(Cc2cc(I)ccc2OC)cn1`, `COc1cc2ncnc(Nc3nccc4ccccc34)c2cc1OC` is higher in melting point: 68 to 70 °C for the first, 198 to 199 °C for the second.

First: O=C(CCCCCCC(=O)N1CCN(c2cccc(C(F)(F)F)c2)CC1)NO
Second: CN1CCN(c2ncc(-c3ccccc3)c(C(=O)N(C)Cc3cc(C(F)(F)F)cc(C(F)(F)F)c3)n2)CC1
The melting point of the first is lower: 126 to 128 °C for the first, 162 to 163 °C for the second.

First: Cc1cccc(CC(Nc2ccccc2)C(=O)NC(C#N)COCc2ccc(F)c(C(=O)O)c2)c1 (stereo not given)
Second: Cc1cccc(NC(=O)c2ccccc2SSc2ccccc2C(=O)Nc2cccc(C)c2)c1
The melting point of the first is lower: 107 to 108 °C for the first, 193 to 195 °C for the second.

First: COc1cc2c(cc1OC)CC(=O)N(CCCI)C=C2
Second: C#CCOc1ncc(Cl)cc1OC
The melting point of the first is higher: 132 to 134 °C for the first, 62 to 64 °C for the second.

Compared with `CC(=O)NC(C)c1ccc(CN2CCN(c3ccccn3)CC2)cc1` (stereo not given), `CN1CCC(=O)C(C(c2ccccc2)c2ccccc2)C1` (stereo not given) is higher in melting point: 120 to 121 °C for the first, 127 to 128 °C for the second.

Compared with `O=S1(=O)N=C(NCc2ccccc2)Nc2cc(Cl)sc21`, `Cc1ccc(C(=O)c2noc(CS(=O)c3ccccc3)n2)cc1` (stereo not given) is lower in melting point: 223 to 226 °C for the first, 97 to 99 °C for the second.

First: CNc1cc(Oc2ccc(NC(=O)Nc3ccc(C(C)(C)C)cc3)cc2)ncn1
Second: CC(Oc1ccc(-c2ccc(Cl)cc2)cc1)(C(N)=O)C(F)(F)F (stereo not given)
The melting point of the first is higher: 245 to 246 °C for the first, 141 to 142 °C for the second.

First: CCOC(=O)CN(CP(=O)(OSc1cc(Cl)ccc1Cl)OSc1cc(Cl)ccc1Cl)C(=O)C(F)(F)F
Second: Cc1cc(C(F)(F)C(F)(F)F)ccc1NC(=O)c1ccc(Cl)c(Cl)c1C(=O)NC(C)C
The melting point of the first is lower: 77 to 80 °C for the first, 208 to 209 °C for the second.

Compared with `Cn1c(-c2ccc(-n3ccnc3)cc2)cnc1[C@H](Cc1ccccn1)N(C=O)c1cc2ccc(Cl)cc2o1`, `Oc1cnccc1CCCOc1cccnc1Oc1cccc(Br)c1` is lower in melting point: 165 to 169 °C for the first, 116 to 118 °C for the second.

First: Cc1nc2cc(N)ccc2c(=O)n1C1CCC(=O)NC1=O (stereo not given)
Second: Nc1ccc(-n2cc(C(F)(F)F)ccc2=O)c(Cl)c1
The melting point of the first is higher: 305 to 307 °C for the first, 136 to 138 °C for the second.

First: CC(=O)c1ccc2c(c1O)CC(S(C)(=O)=O)CO2 (stereo not given)
Second: CC(=O)OCC1COc2c(C(=O)O)cc(Cl)c(Cl)c2O1 (stereo not given)
The melting point of the first is higher: 158 to 162 °C for the first, 144 to 145 °C for the second.

First: C=CCSc1nc(N)n(-c2nnc(-c3ccccc3O)s2)n1
Second: CCOC(=O)c1onc(OCC)c1CN1C(=O)c2ccccc2C1=O
The melting point of the first is higher: 222 to 223 °C for the first, 93 to 94 °C for the second.

First: CCCCN(CCCC)c1ccc(C=CC=Cc2ccc(C=CC3=C(C#N)C(=C(C#N)C#N)OC3(c3ccccc3)C(F)(F)F)s2)c(OC)c1 (stereo not given)
Second: COc1cc(C2CCN(C[C@H](O)C(F)(F)F)CC2)ccc1Nc1ncc2ccc(-c3ccccc3OC)n2n1
The melting point of the first is higher: 125 to 140 °C for the first, 77 to 94 °C for the second.

Compared with `CCOC(=O)N1CCN(CCNc2ncnc3c2sc2nc(N4CCCC4)c4c(c23)CC(C)(C)CC4)CC1`, `COc1cc2c(c3c1OC(C)(C)C3)C(c1cccc(NC(=O)CS(C)(=O)=O)c1)=NC(C)(C)C2` is higher in melting point: 76.2 to 77.8 °C for the first, 135 to 140 °C for the second.

First: FC(F)(F)C(c1ccccc1)(c1ccccc1)c1ccccc1
Second: CCc1cc(Oc2ccc([C@@H]3OC(=O)N[C@@H]3Cc3cccc(OC(F)(F)C(F)F)c3)cc2)ccc1Cl (racemic)
The melting point of the first is higher: 158 to 159 °C for the first, 100 to 101 °C for the second.

Compared with `O=[N+]([O-])c1cc(Cl)ccc1NS(=O)(=O)c1ccc(Cl)cc1`, `O=c1ccc2c(-n3cnc([N+](=O)[O-])c3)nccc2[nH]1` is higher in melting point: 122 to 123 °C for the first, 298 to 300 °C for the second.

First: CN1CCC2(CC1)OCc1ccccc12
Second: Oc1ccc(C2CCCN2CCN2CCOCC2)cc1 (stereo not given)
The melting point of the first is lower: 76 to 77 °C for the first, 107 to 108 °C for the second.

Compared with `Cc1cc(Cl)nc(Br)c1`, `O=C(O)c1ccc(F)c(F)c1Cl` is higher in melting point: 76 °C for the first, 167 to 168 °C for the second.

First: COc1ccc(CS(=O)C(C)(C)C)cc1 (stereo not given)
Second: CNS(=O)(=O)Cc1ccc(C)cc1
The melting point of the first is higher: 124 to 126 °C for the first, 49 to 52 °C for the second.

Going from `CCCCc1ccc2c(=O)c(O)c(-c3cc(O)c(O)c(O)c3)oc2c1` to `COc1c(C)c(=O)oc2cc(-c3ccc(C(C)C)cc3)ccc12`, the melting point falls from 142 °C to 129 °C.

Compared with `COC(=O)c1cccc(OCCCNC(=O)C[C@H]2O[C@H](c3cccc(OC)c3OC)c3cc(Cl)ccc3N(CC(C)(C)CO)C2=O)c1`, `CCOC(=O)C(=O)CC(=O)c1cn(Cc2c(F)cccc2F)c2ccccc2c1=O` is higher in melting point: 99 to 100 °C for the first, 172 to 173 °C for the second.

Compared with `CCCCCS(=O)(=O)NC(=O)/C=C/c1ccc(OCCOC)cc1OCC1CC1`, `Nc1c(Cl)cc(C(O)CNCCCCCCOCCCCc2ncccn2)cc1Cl` (stereo not given) is higher in melting point: 64.8 to 66.3 °C for the first, 77 to 79 °C for the second.

First: CC(C)(C)c1nc(-c2ccc3c(c2)OCO3)[nH]c1C(C)(C)C
Second: CC(C)(C)OC(=O)NCc1cc(-c2cccnc2)n[nH]1
The melting point of the first is lower: 175 to 178 °C for the first, 185 to 187 °C for the second.

First: O=C(O)COCCc1ccc(Cl)cc1
Second: CN1C(=S)C(CCC(=O)O)c2ccccc21 (stereo not given)
The melting point of the first is lower: 75 to 77 °C for the first, 126 to 128 °C for the second.

First: O=c1[nH]c(=O)n(C2CC(Cl)C(CCl)O2)cc1C=CBr (stereo not given)
Second: C=C(Cl)c1c(C(F)(F)F)nc(C)[nH]c1=O
The melting point of the first is higher: 184 °C for the first, 164 to 166 °C for the second.
